Measured values as given in publication PMC8092340 (Oncotarget, 2021).
Entries after “also recorded” stand apart in the source; their conditions may differ. Read-outs that look alike come from different tables or passages of the source.

How the values were obtained:
CYP2D6 = biological target: T1, CYP2D6 (Homo sapiens, UniProt P10635); assay: Cytochrome P450 inhibition assay in human liver microsomes, CYP2D6; assay type: in vitro ADME; details: for IC50 / selectivity ratio: human liver microsomes; for selectivity ratio: human, read-out: SICYP 2D6 (selectivity index of CYP, CYP2D6 IC50 to alt-NHEJ IC50), called fold decrease in CYP2D6 inhibition
T1 construct: tissue Eurofins Scientific; host or cells: human liver microsomes
T1 sequence (P10635 whole entry): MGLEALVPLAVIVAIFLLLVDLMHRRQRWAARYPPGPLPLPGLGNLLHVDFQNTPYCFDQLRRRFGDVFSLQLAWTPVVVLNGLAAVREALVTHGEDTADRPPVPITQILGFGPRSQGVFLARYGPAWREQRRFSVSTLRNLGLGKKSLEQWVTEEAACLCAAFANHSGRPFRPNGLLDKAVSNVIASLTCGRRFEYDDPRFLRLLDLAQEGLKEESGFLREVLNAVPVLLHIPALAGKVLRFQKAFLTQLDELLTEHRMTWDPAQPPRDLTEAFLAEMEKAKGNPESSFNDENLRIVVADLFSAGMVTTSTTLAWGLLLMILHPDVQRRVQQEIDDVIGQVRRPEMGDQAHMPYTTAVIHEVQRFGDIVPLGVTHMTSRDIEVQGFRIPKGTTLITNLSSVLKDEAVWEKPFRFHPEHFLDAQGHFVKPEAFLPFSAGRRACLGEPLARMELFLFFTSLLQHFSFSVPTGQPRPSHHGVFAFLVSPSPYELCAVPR
Method: (§1) CYP inhibition assays were performed by Eurofins Scientific. Test compounds were incubated with human liver microsomes, followed by compound detection using high performance liquid chromatography with tandem mass spectrometry (HPLC-MS/MS).

T type Cav 3.3 = biological target: T2, T type Cav 3.3 (Homo sapiens, UniProt Q9P0X4); assay: Calcium channel blocking study, T-type Cav3.3; assay type: cell-based; details: HEK293 cells stably expressing the channel
T2 construct: host or cells: HEK293
T2 sequence (Q9P0X4 whole entry): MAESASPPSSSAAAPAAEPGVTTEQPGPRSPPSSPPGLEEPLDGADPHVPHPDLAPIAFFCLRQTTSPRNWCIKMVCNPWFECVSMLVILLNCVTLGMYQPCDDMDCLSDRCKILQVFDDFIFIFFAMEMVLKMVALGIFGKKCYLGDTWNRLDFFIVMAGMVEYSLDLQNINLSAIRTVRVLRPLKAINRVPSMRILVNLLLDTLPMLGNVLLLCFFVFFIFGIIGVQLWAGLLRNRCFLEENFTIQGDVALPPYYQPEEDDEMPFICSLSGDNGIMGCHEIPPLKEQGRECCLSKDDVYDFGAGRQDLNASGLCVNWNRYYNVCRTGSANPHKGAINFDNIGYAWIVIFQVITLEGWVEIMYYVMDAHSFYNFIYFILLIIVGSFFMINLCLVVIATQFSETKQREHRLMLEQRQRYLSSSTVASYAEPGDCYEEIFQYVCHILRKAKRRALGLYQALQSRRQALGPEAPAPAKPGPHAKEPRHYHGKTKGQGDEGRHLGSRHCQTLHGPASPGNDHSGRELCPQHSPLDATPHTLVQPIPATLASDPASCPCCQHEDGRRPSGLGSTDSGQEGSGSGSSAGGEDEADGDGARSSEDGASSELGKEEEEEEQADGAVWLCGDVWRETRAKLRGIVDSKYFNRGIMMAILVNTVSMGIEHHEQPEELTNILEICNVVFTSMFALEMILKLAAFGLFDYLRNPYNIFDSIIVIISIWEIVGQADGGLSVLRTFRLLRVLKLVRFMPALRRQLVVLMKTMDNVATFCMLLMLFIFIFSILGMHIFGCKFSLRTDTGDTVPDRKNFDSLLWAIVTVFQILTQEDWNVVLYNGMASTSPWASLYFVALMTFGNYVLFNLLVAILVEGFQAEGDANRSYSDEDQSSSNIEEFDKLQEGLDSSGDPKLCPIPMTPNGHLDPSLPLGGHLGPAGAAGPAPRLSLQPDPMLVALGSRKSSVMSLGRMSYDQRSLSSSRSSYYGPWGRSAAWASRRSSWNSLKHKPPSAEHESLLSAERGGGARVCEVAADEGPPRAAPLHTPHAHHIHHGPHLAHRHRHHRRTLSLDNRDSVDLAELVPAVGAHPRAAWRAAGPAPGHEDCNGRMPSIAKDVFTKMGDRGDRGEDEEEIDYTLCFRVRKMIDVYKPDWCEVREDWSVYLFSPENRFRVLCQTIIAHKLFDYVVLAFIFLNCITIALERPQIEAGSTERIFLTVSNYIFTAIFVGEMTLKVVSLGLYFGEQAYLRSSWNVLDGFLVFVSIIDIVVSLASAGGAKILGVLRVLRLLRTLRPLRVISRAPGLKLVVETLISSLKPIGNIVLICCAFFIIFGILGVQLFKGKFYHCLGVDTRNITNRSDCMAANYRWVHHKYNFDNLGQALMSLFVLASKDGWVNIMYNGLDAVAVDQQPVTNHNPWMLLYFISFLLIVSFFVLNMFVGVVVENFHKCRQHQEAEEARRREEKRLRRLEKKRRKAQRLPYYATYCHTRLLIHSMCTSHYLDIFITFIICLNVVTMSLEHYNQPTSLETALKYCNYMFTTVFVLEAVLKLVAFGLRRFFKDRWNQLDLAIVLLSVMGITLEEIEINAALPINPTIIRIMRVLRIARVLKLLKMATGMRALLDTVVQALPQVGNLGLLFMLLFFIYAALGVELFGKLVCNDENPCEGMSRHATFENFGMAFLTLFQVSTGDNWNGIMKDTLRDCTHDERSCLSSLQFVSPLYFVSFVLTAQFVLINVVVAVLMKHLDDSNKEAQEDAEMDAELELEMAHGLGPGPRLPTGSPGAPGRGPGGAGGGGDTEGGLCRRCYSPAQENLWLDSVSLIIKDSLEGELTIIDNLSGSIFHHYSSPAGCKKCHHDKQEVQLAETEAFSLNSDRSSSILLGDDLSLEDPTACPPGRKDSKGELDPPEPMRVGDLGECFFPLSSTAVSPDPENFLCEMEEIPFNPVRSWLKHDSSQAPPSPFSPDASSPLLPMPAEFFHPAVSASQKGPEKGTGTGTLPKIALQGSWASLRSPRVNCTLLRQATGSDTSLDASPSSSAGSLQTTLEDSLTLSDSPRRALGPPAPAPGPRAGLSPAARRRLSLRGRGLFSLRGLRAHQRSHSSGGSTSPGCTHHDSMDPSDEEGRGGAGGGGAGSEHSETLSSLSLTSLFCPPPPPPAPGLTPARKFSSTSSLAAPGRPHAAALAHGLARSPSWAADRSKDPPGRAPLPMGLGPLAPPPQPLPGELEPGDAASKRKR
Method: (§4) Calcium channel blocking studies were performed by Charles River Laboratories in Chinese Hamster Ovary (CHO) and HEK293 cell lines stably expressing L-Type and T-type calcium channels, respectively, under tetracycline induction in accordance with a previously published study [46]. Data acquisition and analysis was performed using the IonWorks Quattro™ or Barracuda system software (Molecular Devices Corporation).

T type Cav 3.2 = biological target: T3, T type Cav 3.2 (Homo sapiens, UniProt O95180); assay: Calcium channel blocking study, T-type Cav3.2; assay type: cell-based; details: HEK293 cells stably expressing the channel
T3 construct: host or cells: HEK293
Method: as §4

[1] = In vivo pharmacokinetic study, brain tissue; details: for half-life: female, athymic nude, mouse, po, 30 mg/kg
Method: (§2) These measurements were used to calculate various pharmacokinetic parameters critical to bioavailability including time to reach maximum concentration (tmax), maximum concentration achieved (Cmax), and half-life (t1/2) (Figure 5C, 5D, Supplementary Table 1).
(§3) Compound concentrations were measured at these time-points using Liquid Chromatography with tandem mass spectrometry (LC-MS-MS). Pharmacokinetic studies were performed by orally dosing test compounds at 30 mg/kg dissolved in 50% PEG400 and 50% water in female athymic nude mice. Plasma and brain tissue concentration were measured using mass spectrometry (MS).

[2] = Cytotoxicity in the absence of DSB ligands (CT), Hoechst cell count; assay type: cell-based, human; details: human, EJ-DR U2OS cells, no DSB ligands
Method: (§5) In addition to quantifying HR and alt-NHEJ activities, cytotoxicity in the absence of DSB ligands (CT) was also evaluated by quantifying the number of Hoeschst 33342-stained cells, allowing us to better understand the margin between on-target and presumable off-target, DNA repair-independent effects. IC50 values of HR inhibition, alt-NHEJ inhibition, and CT were used to calculate the “selectivity index” (SI) (defined as the ratio of CT IC50/alt-NHEJ IC50) and alt-NHEJ selectivity defined as HR IC50/alt-NHEJ IC50. […] (Figure 1E).
(§6) The EJ-DR cell line was cultured in high glucose Dulbecco’s modified Eagle’s medium (DMEM; Thermo Fisher Scientific) with L-glutamine containing 10% tetracycline-free (tet-free) fetal bovine serum (FBS; Takara Bio Inc. and Atlanta Biologics) and 1% Penicillin Streptomycin (Thermo Fisher Scientific). […] All cells were maintained at 37°C with 5% CO2.
(§7) The EJ-DR cells were plated in 384-well imaging plates at 2500 cells/well. 24 hours later, the DSB ligands, Triamcinolone Acetonide (TA; Sigma-Aldrich Co., LLC) and Shield-1 (Takara Bio Inc.), responsible for inducing the DSBs, were added for a final concentration of 100 nM TA and 1 μM Shield-1. Test compounds were also added at the same time using Echo 550 Acoustic Dispenser (Labcyte). A separate plate was seeded to test for cytotoxicity of the test compounds in the absence of the DSB ligands. […] The DSB ligands were washed out 24 hours after addition. 96 hours after addition of the ligands and test compounds, the media was washed off and cells were incubated with Hoechst nuclear stain in Live Cell Imaging Solution (Thermo Fisher Scientific). Plates were rinsed and prepared for immediate live cell imaging using GE IN Cell 2200 (Cytiva Life Sciences). Images were analyzed using InCell Analyzer software (Cytiva Life Sciences). Nuclei were segmented based on the Hoechst staining, and the intensity of the GFP and RFP signals in control populations were measured and binned into histograms to determine signal intensity threshold. The GFP and RFP intensity of all wells was then analyzed, and the percent of positive cells with GFP and RFP intensity above the threshold was calculated to determine the induction of signal. The DAPI cell counts were used to determine the relative cytotoxicity of test compounds in the absence of induced DNA damage.

L type Cav 1.2 = biological target: T4, L type Cav 1.2 (Homo sapiens, UniProt Q13936); assay: Calcium channel blocking study, L-type; assay type: cell-based; details: CHO cells stably expressing the channel
T4 construct: host or cells: CHO
Method: as §4

T type Cav 3.1 = biological target: T5, T type Cav 3.1 (Homo sapiens, UniProt O43497); assay: Calcium channel blocking study, T-type Cav3.1; assay type: cell-based; details: HEK293 cells stably expressing the channel
T5 construct: host or cells: HEK293
Method: as §4

CYP3A4 = biological target: T6, CYP3A4 (Homo sapiens, UniProt P08684); assay: Cytochrome P450 inhibition assay in human liver microsomes, CYP3A4; assay type: in vitro ADME; details: for IC50 / selectivity ratio: human liver microsomes; for selectivity ratio: human, read-out: SICYP 3A4 (selectivity index of CYP, CYP3A4 IC50 to alt-NHEJ IC50), called fold decrease in CYP3A4 inhibition
T6 construct: tissue Eurofins Scientific; host or cells: human liver microsomes
T6 sequence (P08684 whole entry): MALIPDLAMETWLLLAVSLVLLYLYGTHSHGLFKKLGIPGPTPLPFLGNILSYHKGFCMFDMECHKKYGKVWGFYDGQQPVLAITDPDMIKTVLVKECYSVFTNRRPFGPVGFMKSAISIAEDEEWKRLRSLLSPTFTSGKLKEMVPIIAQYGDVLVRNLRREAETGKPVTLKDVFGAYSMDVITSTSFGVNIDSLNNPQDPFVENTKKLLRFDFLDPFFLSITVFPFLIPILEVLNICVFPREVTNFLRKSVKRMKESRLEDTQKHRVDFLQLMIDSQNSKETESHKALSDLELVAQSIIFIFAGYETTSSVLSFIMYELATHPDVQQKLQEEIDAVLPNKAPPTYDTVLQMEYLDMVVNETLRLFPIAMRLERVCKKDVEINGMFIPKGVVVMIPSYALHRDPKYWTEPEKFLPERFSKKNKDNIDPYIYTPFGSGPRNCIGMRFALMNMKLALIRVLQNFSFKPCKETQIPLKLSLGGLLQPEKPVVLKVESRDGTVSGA
Method: as §1

HR = assay: EJ-DR 384-well imaging assay, HR (GFP) readout; details: read-out: HR IC50
Description: (§8) The EJ-DR system was made in the U2OS cell line, which provides a simultaneous read-out of alt-NHEJ and HR activity in cells in response to induced DSBs. The cell line consists of a repair template and a reporter vector. When both these elements are chromosomally integrated, cleavage of a restriction enzyme site in the repair template, induced by ligand addition, causes a DSB. Depending on which DSB repair pathway is utilized, cells either express GFP if HR is used to repair the break site using the downstream homology template near the restriction enzyme site, or RFP if alt-NHEJ is involved in ligation of the cut ends.
(§9) An overview of the workflow of this assay is presented in Figure 1A, which starts with the addition of the test compounds and DSB ligands, followed by a media wash 24 hours later to terminate DSB induction, and then live cell imaging 96 hours later. After live cell imaging, we quantify the individual intensities of GFP and RFP signal in cells using the IN Cell imager. We then use the intensity measurements of individual cells in each channel and plot these intensities as a histogram to threshold out baseline levels of GFP and RFP intensity in the absence of ligands (Figure 1B and 1C). After applying the threshold, the percent of GFP and RFP-positive cells is calculated as a readout of induction of HR and alt-NHEJ activity, respectively.
(§10) In addition to quantifying HR and alt-NHEJ activities, cytotoxicity in the absence of DSB ligands (CT) was also evaluated by quantifying the number of Hoeschst 33342-stained cells, allowing us to better understand the margin between on-target and presumable off-target, DNA repair-independent effects. IC50 values of HR inhibition, alt-NHEJ inhibition, and CT were used to calculate the “selectivity index” (SI) (defined as the ratio of CT IC50/alt-NHEJ IC50) and alt-NHEJ selectivity defined as HR IC50/alt-NHEJ IC50.
(§11) The EJ-DR cell line was created in the U2OS cells (a human osteosarcoma cell line), and contained a stably integrated EJ-RFP plasmid to measure alt-NHEJ repair and a DR-GFP plasmid to measure HR repair, and has been previously described [9]. The EJ-DR cell line was cultured in high glucose Dulbecco’s modified Eagle’s medium (DMEM; Thermo Fisher Scientific) with L-glutamine containing 10% tetracycline-free (tet-free) fetal bovine serum (FBS; Takara Bio Inc. and Atlanta Biologics) and 1% Penicillin Streptomycin (Thermo Fisher Scientific). Tet-free FBS was used to prevent any expression of the tetracycline-inducible EJ-RFP system from residual tetracycline found in most commercially available FBS. All cells were maintained at 37°C with 5% CO2.
(§12) The EJ-DR cells were plated in 384-well imaging plates at 2500 cells/well. 24 hours later, the DSB ligands, Triamcinolone Acetonide (TA; Sigma-Aldrich Co., LLC) and Shield-1 (Takara Bio Inc.), responsible for inducing the DSBs, were added for a final concentration of 100 nM TA and 1 μM Shield-1. Test compounds were also added at the same time using Echo 550 Acoustic Dispenser (Labcyte). A separate plate was seeded to test for cytotoxicity of the test compounds in the absence of the DSB ligands. […] The DSB ligands were washed out 24 hours after addition. 96 hours after addition of the ligands and test compounds, the media was washed off and cells were incubated with Hoechst nuclear stain in Live Cell Imaging Solution (Thermo Fisher Scientific). Plates were rinsed and prepared for immediate live cell imaging using GE IN Cell 2200 (Cytiva Life Sciences).

alt-NHEJ = assay: EJ-DR 384-well imaging assay, alt-NHEJ (RFP) readout; details: for selectivity index SI (CT IC50/alt-NHEJ IC50) / Selectivity Index (HR IC50/alt-NHEJ IC50): ratio; for Selectivity Index (HR IC50/alt-NHEJ IC50): Supplementary Table 2
Description: as §8, §9, §10, §11, §12

[3] = In vivo pharmacokinetic study, plasma
Method: as §2, §3

[4] = cited from earlier work
[5] = Microsomal half-life study; assay type: in vitro ADME; details: mouse, mouse liver microsomes; read-out: mouse liver microsome half-life
Human hERG (Kv11.1) = biological target: T7, Human hERG (Kv11.1) (Homo sapiens, UniProt Q12809); assay: Automated hERG inhibition patch clamp assay; assay type: cell-based; details: for IC50: patch clamp, CHO-K1 cells; for SIhERG (hERG IC50/alt-NHEJ IC50), called fold reduction in hERG potency: ratio
T7 construct: host or cells: CHO-K1
T7 sequence (Q12809 whole entry): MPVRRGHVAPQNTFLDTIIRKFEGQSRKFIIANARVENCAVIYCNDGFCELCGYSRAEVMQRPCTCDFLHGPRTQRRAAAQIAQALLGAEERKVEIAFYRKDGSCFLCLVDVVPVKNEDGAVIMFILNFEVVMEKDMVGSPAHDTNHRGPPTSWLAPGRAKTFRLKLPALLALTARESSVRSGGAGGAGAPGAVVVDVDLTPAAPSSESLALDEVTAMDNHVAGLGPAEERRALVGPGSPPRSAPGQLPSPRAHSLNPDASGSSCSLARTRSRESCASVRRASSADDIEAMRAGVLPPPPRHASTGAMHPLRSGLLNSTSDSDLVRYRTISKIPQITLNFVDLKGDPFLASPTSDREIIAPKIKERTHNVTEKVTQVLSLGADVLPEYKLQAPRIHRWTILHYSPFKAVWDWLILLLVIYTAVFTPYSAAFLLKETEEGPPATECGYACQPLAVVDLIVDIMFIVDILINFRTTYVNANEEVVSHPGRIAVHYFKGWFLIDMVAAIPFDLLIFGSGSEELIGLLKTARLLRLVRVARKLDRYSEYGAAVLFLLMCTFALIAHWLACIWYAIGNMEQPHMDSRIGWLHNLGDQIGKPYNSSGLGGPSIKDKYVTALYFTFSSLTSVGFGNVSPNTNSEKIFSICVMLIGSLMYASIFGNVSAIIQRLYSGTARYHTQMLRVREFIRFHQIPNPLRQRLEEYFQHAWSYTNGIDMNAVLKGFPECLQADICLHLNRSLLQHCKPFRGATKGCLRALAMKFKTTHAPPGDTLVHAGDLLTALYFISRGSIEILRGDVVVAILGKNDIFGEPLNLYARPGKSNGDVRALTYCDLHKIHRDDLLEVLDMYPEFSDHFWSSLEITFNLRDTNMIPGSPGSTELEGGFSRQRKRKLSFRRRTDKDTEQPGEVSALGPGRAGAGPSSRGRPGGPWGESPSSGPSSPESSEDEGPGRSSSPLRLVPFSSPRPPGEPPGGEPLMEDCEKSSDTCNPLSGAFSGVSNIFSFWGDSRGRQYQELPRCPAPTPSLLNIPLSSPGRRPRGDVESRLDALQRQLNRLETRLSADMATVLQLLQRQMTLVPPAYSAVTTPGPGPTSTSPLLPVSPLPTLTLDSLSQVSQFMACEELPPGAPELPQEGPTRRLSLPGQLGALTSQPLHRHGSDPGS
Method: Automated whole cell voltage clamp hERG inhibition assays were performed in Human hERG (Kv11.1) expressed in CHO-K1 cells optimized for automated patch clamp studies by Sophion Bioscience A/S [47].

EJ-DR U2OS cells = assay: Cytotoxicity in the absence of DSB ligands (CT), Hoechst cell count; assay type: cell-based, human; details: Supplementary Table 2, mean ± SEM of four technical replicates
Method: as §5, §6, §7

[6] = oral 30 mg/kg, female athymic nude mice
[7] = Table 1, read-out: Cytotoxicity IC50
[8] = Homo sapiens, U2OS, read-out: alt-NHEJ IC50
[9] = Homo sapiens, read-out: nc-EJ IC50
[10] = figures, read-out: CT IC50 (cytotoxicity)
[11] = recurrent GBM patients, mibefradil with hypofractionated RT
[12] = Homo sapiens, read-out: alt-NHEJ IC50

CC(C)C(C(=O)NCCCN1CC=C(c2ccc(Cl)cc2)CC1)c1ccc(F)cc1 (centres unmarked) [YU252386]
IC50 (CYP2D6): 0.87 µM | selectivity ratio (CYP2D6; ratio): 0.82 | IC50 (T type Cav 3.3): 1.1 µM | IC50 (T type Cav 3.2): 0.9 µM | half-life ([1]; in vivo): ~2.5 h | brain concentration relative to the alt-NHEJ IC50 [1, 6]: ~ 3 fold | brain exposure compared to mibefradil [1, 6]: ~ 8 fold | percent coverage of the in vitro alt-NHEJ IC50 at the Cmax in the brain [1, 6]: 300% | IC50 at 96 h [2, 7]: 17.9 µM | IC50 (L type Cav 1.2): 5.6 µM | IC50 (T type Cav 3.1): 0.9 µM | IC50 (CYP3A4): 17.9 µM | selectivity ratio (CYP3A4; ratio): 16.9 | SICYP 3A4 (selectivity index of CYP, CYP3A4 IC50 to alt-NHEJ IC50), called fold decrease in CYP3A4 inhibition (CYP3A4; ratio): ~ 17 | IC50 (HR; Homo sapiens): > 60 µM | IC50 (alt-NHEJ; [8]): 1.06 µM | IC50 (alt-NHEJ; [9]): 1.1 µM | half-life ([3]; female, athymic nude, mouse, in vivo, po, 30 mg/kg): 4.01 h | % AUC Extrapolation [3, 6]: 7.5% | AUC(0-x)/Dose [3, 6]: 45.0 ng·h/mL/mg/kg | Cmax/Dose [3, 6]: 11.3 ng/mL/mg/kg | Time at which Cmax was observed (tmax) [3, 6]: 1.0 h | plasma concentration compared with mibefradil [3, 6]: ~ 0.3 fold | Area under concentration vs time curve (AUC) (0-x) ([3]; oral 30 mg/kg, female athymic nude mice, YU252222 given as methyl ester prodrug): 1350 ng·h/mL

CC(C)[C@H]1c2ccc(F)cc2CC[C@]1(O)CC(=O)N(C)CCCc1nc2ccccc2[nH]1 [YU241551]
IC50 at 96 h [2, 10]: > 60 µM | IC50 (alt-NHEJ; [8]): > 60 µM | selectivity index SI (CT IC50/alt-NHEJ IC50) (alt-NHEJ): > 1

COCC(=O)O[C@]1(CCN(C)CCCc2nc3ccccc3[nH]2)CCc2cc(F)ccc2[C@@H]1C(C)C [Mibefradil, mibefradil]
IC50 (CYP2D6): 0.6 µM | patients showing QT prolongation ([4]; mibefradil phase I trial, ref manuscript under preparation, 12): five out of 19 | QT interval elongation, dose-limiting toxicity [4, 11]: 28% | sinus bradycardia, dose-limiting toxicity [4, 11]: 28% | half-life ([1]; brain): ~8 h | IC50 at 96 h [2, 7]: 10.5 µM | IC50 (HR; Homo sapiens): > 60 µM | half-life [5]: 0.25 h | effect on alt-NHEJ and HR in the EJ-DR assay (alt-NHEJ; EJ-DR U2OS cells): selective inhibition of alt-NHEJ over HR without significant cellular cytotoxicity; also recorded: selective inhibition of alt-NHEJ over HR | IC50 (alt-NHEJ; [8]): ~4 µM | IC50 (alt-NHEJ; [9]): 3.8 µM | half-life ([3]; female, athymic nude, mouse, plasma, po, 30 mg/kg): 2.6 h | Cmax ([3]; female, athymic nude, mouse, plasma, po, 30 mg/kg, Maximum concentration (Cmax), oral 30 mg/kg, female athymic nude mice, YU252222 given as methyl ester prodrug): 1090 ng/mL | % AUC Extrapolation [3, 6]: 0.4% | AUC(0-x)/Dose [3, 6]: 161 ng·h/mL/mg/kg | Cmax/Dose [3, 6]: 36.3 ng/mL/mg/kg | Time at which Cmax was observed (tmax) [3, 6]: 1.0 h

CC(C)C1c2ccccc2CCN1C(=O)CC1CCN(C(=O)OC(C)(C)C)CC1 (centres unmarked) [YU241542]
IC50 at 96 h [2, 10]: > 60 µM | IC50 (alt-NHEJ; [8]): 41.3 µM | selectivity index SI (CT IC50/alt-NHEJ IC50) (alt-NHEJ): > 1.45

CC(C)[C@H]1c2ccc(F)cc2CC[C@]1(O)CCN1C[C@H](Oc2nccc3ccccc23)C[C@H]1CO [YU252223]
IC50 (Human hERG (Kv11.1)): 6.8 µM | SIhERG (hERG IC50/alt-NHEJ IC50), called fold reduction in hERG potency (Human hERG (Kv11.1)): 4.14 | IC50 (alt-NHEJ; [8]): 1.64 µM

O.O=C(O)C(F)(F)F.O=c1[nH]c2ccccc2n1C1CCN(Cc2ccc(-c3nc4cc5[nH]cnc5cc4nc3-c3ccccc3)cc2)CC1 [Akt-1/2 inhibitor]
IC50 (HR; EJ-DR U2OS cells, text and figures): > 10 µM | selectivity index SI (CT IC50/alt-NHEJ IC50) (alt-NHEJ): 77.67 | IC50 (alt-NHEJ; read-out: alt-NHEJ IC50, EJ-DR U2OS cells, text and figures): 0.15 µM

COCC(=O)OC1(CCN2CC(Oc3nccc4ccccc34)CC2CO)CCc2cc(F)ccc2C1C(C)C (centres unmarked) [YU252376]
IC50 (CYP2D6): 3.5 µM | selectivity ratio (CYP2D6; ratio): ~3 | SICYP 2D6 (selectivity index of CYP, CYP2D6 IC50 to alt-NHEJ IC50), called fold decrease in CYP2D6 inhibition (CYP2D6; ratio): 3.18 | IC50 (CYP3A4): 12.6 µM | selectivity ratio (CYP3A4; ratio): 11.4 | IC50 (alt-NHEJ; [8]): 1.1 µM

NC1(C(=O)N[C@@H](CCO)c2ccc(Cl)cc2)CCN(c2ncnc3[nH]ccc23)CC1 [AZD 5363]
IC50 (EJ-DR U2OS cells; Homo sapiens, U2OS): 48.5 ± 73 µM | IC50 (HR; Homo sapiens): 31.6 ± 59.2 µM | IC50 (alt-NHEJ; [12]): 16.9 ± 26.5 µM | Selectivity Index (HR IC50/alt-NHEJ IC50) (alt-NHEJ): 1.87

CC(C)NC[C@@H](C(=O)N1CCN(c2ncnc3c2[C@H](C)C[C@H]3O)CC1)c1ccc(Cl)cc1 [GDC-0068]
IC50 (EJ-DR U2OS cells; Homo sapiens, U2OS): 41.5 ± 3.32 µM | IC50 (HR; Homo sapiens): 22.1 ± 1.84 µM | IC50 (alt-NHEJ; [12]): 9.4 ± 1.78 µM | Selectivity Index (HR IC50/alt-NHEJ IC50) (alt-NHEJ): 2.35

CC(=O)c1c(C)c2cnc(Nc3ccc(N4CCNCC4)cn3)nc2n(C2CCCC2)c1=O [Pablociclib]
IC50 (EJ-DR U2OS cells): 1.37 ± 0.36 µM | IC50 (HR; EJ-DR assay, Supplementary Table 2, mean ± SEM of four technical replicates): 0.06 ± 0.01 µM | Selectivity Index (HR IC50/alt-NHEJ IC50) (alt-NHEJ): 1.50 | IC50 (alt-NHEJ; read-out: alt-NHEJ IC50, EJ-DR assay, Supplementary Table 2, mean ± SEM of four technical replicates): 0.04 ± 0.01 µM

COC[C@@H]1C[C@@H](Oc2nccc3ccccc23)CN1CC[C@@]1(O)CCc2cc(F)ccc2[C@@H]1C(C)C [YU252373]
IC50 (Human hERG (Kv11.1)): 9.8 µM | SIhERG (hERG IC50/alt-NHEJ IC50), called fold reduction in hERG potency (Human hERG (Kv11.1)): 5.76 | IC50 (alt-NHEJ; [8]): 1.7 µM
